What all share (format): in vivo
Test [1] has as its system Eubacterium rectale. The test can be described thus: bacterial copy number of Eubacterium rectale in cecal feces of mice. To be noted: after 4 weeks of DHZ administration. The method, then:
(§1) Twenty-four pure Swiss male mice were randomly divided into three groups, with 8 mice in each group, and were given food and water freely under the light and dark cycle of 12:12 hours. The first group was the control group (group 1, no DHZ), the second group was given by gavage 50 mg/kg DHZ (group 2), and the third group was given by gavage 100 mg/kg DHZ (group 3). DHZ solution was prepared with 5% DMSO, 25% PEG-400, 30% propylene glycol and 40% normal saline. All the mice were administered at a dose of 10 mL/kg body weight for 4 weeks. 4 weeks later, these mice were made to run on treadmill voluntarily for exercise analysis, and the running distance of each of mice when exhausted was recorded. All the mice were untrained before exercise. Each group was perfused with paraformaldehyde, and brain tissue was frozen in liquid nitrogen for ELISA, and then dopamine was detected. The cecal feces of mice were collected and the flora was sequenced by 16s. The proportion of different bacteria in feces was obtained, and the DNA in feces was extracted to detect the copy number of Eubacterium rectale and Coprococcus eutactus. The statistical analysis of data was conducted by unpaired t-test, and * indicates significant difference. Compared with the control group, * means p<0.05; ** means p<0.01; *** means p<0.001; **** means p<0.0001. […]

The test system of test [2] is Coprococcus eutactus. Briefly: bacterial copy number of Coprococcus eutactus in cecal feces of mice. To be noted: after 4 weeks of DHZ administration. The procedure:
as §1

Test [3] concerns dopamine. Briefly: dopamine content in the brain of mice (ELISA). The following applies: 4 weeks; for dopamine content in the brain: control 3,293 ng/g brain. The method, then:
(§2) Twenty-four pure Swiss male mice were randomly divided into three groups, with 8 mice in each group, and were given food and water freely under the light and dark cycle of 12:12 hours. The first group was the control group (group 1, no DHZ), the second group was given by gavage 50 mg/kg DHZ (group 2), and the third group was given by gavage 100 mg/kg DHZ (group 3). DHZ solution was prepared with 5% DMSO, 25% PEG-400, 30% propylene glycol and 40% normal saline. All the mice were administered at a dose of 10 mL/kg body weight for 4 weeks. 4 weeks later, these mice were made to run on treadmill voluntarily for exercise analysis, and the running distance of each of mice when exhausted was recorded. All the mice were untrained before exercise. Each group was perfused with paraformaldehyde, and brain tissue was frozen in liquid nitrogen for ELISA, and then dopamine was detected. The cecal feces of mice were collected and the flora was sequenced by 16s. The proportion of different bacteria in feces was obtained, and the DNA in feces was extracted to detect the copy number of Eubacterium rectale and Coprococcus eutactus. The statistical analysis of data was conducted by unpaired t-test, and * indicates significant difference. Compared with the control group, * means p<0.05; ** means p<0.01; *** means p<0.001; **** means p<0.0001.

A short description of test [4]: treadmill exercise endurance of mice after 4 weeks administration. The following applies: for running distance on treadmill when exhausted (exercise endurance): Swiss male mice, control 948 m. The method, then:
as §2

Where [5] appears, read: high dose group (100 mg/kg by gavage).

As to `COc1cc(/C=C/C(C)=O)ccc1O` [DHZ, Dehydrozingerone], the “increase of number (copy number) of Eubacterium rectale compared with the control group” value in test [1] is given as “about 3 times”. For the same compound, the “increase of number (copy number) of Coprococcus eutactus compared with the control group” value in test [2] is recorded as “about 3 times”. For the same compound, the “brain dopamine level, times higher than in the control group” value in test [3] (setting [5]) amounted to 5 times. Further, the “dopamine content in the brain” value in test [3] (setting [5]) was 19,988 ng/g brain; in test [3] (low dose group (50 mg/kg by gavage)), 16,285 ng/g brain. Further, the “running distance on treadmill when exhausted (exercise endurance)” value in test [4] (50 mg/kg DHZ by gavage (low-dose group)) is 1112 m; in test [4] (100 mg/kg DHZ by gavage (high-dose group)), 1367 m. Moreover, in test [4] (high-dose group (100 mg/kg by gavage)), the “exercise performance higher than that of control group” value worked out at 44%.

The record behind these values is patent publication US20260130864A1, “METHOD AND COMPOSITION FOR ENHANCING EXERCISE PERFORMANCE” (NANJING NUTRABUILDING BIO-TECH CO., LTD., priority 2023, published 2026).
